# Laboratory results as given in PMC11582173, “Synthesis, cytotoxicity, anti-inflammatory, anti-metastatic and anti-oxidant activities of novel chalcones incorporating 2-phenoxy-N-arylacetamide and thiophene moieties: induction of apoptosis in MCF7 and HEP2 cells” (Naunyn-Schmiedeberg's Archives of Pharmacology, 2024).
# System: Survivin gene
# Experiment: Real-time PCR, Survivin gene expression
# Assay type: cell-based, human
# Settings: relative to untreated control (1)
# Procedure: The expression level of the following six genes (Ki-67, Survivin, Interleukin-1 beta (IL-1B), Interleukin-6 (IL-6), Cyclooxygenase-2 (COX-2) and protein kinase B (AKT1)) was determined in MCF7 and HEP2 treated with the IC50 of compound 5c. The untreated cells were used as a negative control for comparison purposes. […] Ki-67 is a popular proliferation marker for human tumor cells. […] Survivin is an inhibitor of apoptotic protein (IAP) family member, which is essential for cell division. The lowering of the expression of survivin inhibited tumor development, triggered apoptosis, and made tumor cells more susceptible to radiation and chemotherapy (Albadari and Li [2023]). […] IL-1B is a pleiotropic mediator of inflammation, which is produced in response to a variety of stressors (Aarreberg et al. [2019]). […] IL-6 is a pro-inflammatory cytokine that plays a significant role in the proliferation and differentiation of human cells. It promotes the production of numerous proteins involved in acute inflammation (Uciechowski and Dempke [2020]). […]
# The expression level of the following six genes (Ki-67, survivin, AKT1, IL-6, COX2, and IL-1B) was examined using real-time polymerase chain reaction (qPCR) (Mohamed et al. [2023a]). […] The cycle threshold (Ct) was determined automatically. […]
smiles,measurement,setting,value
"COc1ccc(NC(=O)COc2ccc(C=CC(=O)c3cccs3)cc2)cc1 [Compound 5c, N-(4-Methoxyphenyl)-2-(4-(3-oxo-3-(thiophen-2-yl)prop-1-en-1-yl)phenoxy)acetamide]",Survivin expression folding,HEP2 cells treated with IC50 of 5c,0.489±0.07 fold
same,Survivin expression folding,MCF7 cells treated with IC50 of 5c,0.632±0.0618 fold
